The values below come from PubChem BioAssay AID248 (DTP/NCI, 2004).

The experiment relates to L1210 leukemia ip in BDF1 mice, survival T/C. Briefly: NCI In Vivo Anticancer Drug Screen. Data for tumor model L1210 Leukemia (intraperitoneal) in B6D2F1 (BDF1) mice. The settings on record: endpoint: mean survival time, higher = longer survival. The method in brief: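 Read-out is survival time, reported as the treated-group measurement over the vehicle-control measurement.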

[1] abbreviates: dose: 100.0 mg/kg/injection, schedule: Q04DX003 (ip), vehicle: saline.
[2] abbreviates: dose: 200.0 mg/kg/injection, schedule: Q04DX003 (ip), vehicle: saline.
Setting [3] is: dose: 400.0 mg/kg/injection, schedule: Q04DX003 (ip), vehicle: saline.
Where [4] appears, read: dose: 100.0 mg/kg/injection, schedule: Q01DX009 (ip), vehicle: saline with Tween-80.
[5] abbreviates: dose: 100.0 mg/kg/injection, schedule: Q04DX003 (ip), vehicle: saline with Tween-80.
Setting [6] is: dose: 200.0 mg/kg/injection, schedule: Q01DX009 (ip), vehicle: saline with Tween-80.
Setting [7] is: dose: 200.0 mg/kg/injection, schedule: Q04DX003 (ip), vehicle: saline with Tween-80.
Where [8] appears, read: dose: 400.0 mg/kg/injection, schedule: Q04DX003 (ip), vehicle: saline with Tween-80.
Where [9] appears, read: dose: 100.0 mg/kg/injection, schedule: Q04DX002 (ip), vehicle: Klucel (hydroxypropylcellulose) (HPC).
The mark [10] stands for this setting: dose: 200.0 mg/kg/injection, schedule: Q04DX002 (ip), vehicle: Klucel (hydroxypropylcellulose) (HPC).
Setting [11] is: dose: 400.0 mg/kg/injection, schedule: Q04DX002 (ip), vehicle: Klucel (hydroxypropylcellulose) (HPC).
The mark [12] stands for this setting: dose: 100.0 mg/kg/injection, schedule: Q04DX003 (ip), vehicle: acetone.
The mark [13] stands for this setting: dose: 200.0 mg/kg/injection, schedule: Q04DX003 (ip), vehicle: acetone.
[14] abbreviates: dose: 100.0 mg/kg/injection, schedule: Q01DX009 (ip), vehicle: Klucel (hydroxypropylcellulose) (HPC).
[15] abbreviates: dose: 100.0 mg/kg/injection, schedule: Q04DX003 (ip), vehicle: Klucel (hydroxypropylcellulose) (HPC).
The mark [16] stands for this setting: dose: 200.0 mg/kg/injection, schedule: Q01DX009 (ip), vehicle: Klucel (hydroxypropylcellulose) (HPC).
The mark [17] stands for this setting: dose: 200.0 mg/kg/injection, schedule: Q04DX003 (ip), vehicle: Klucel (hydroxypropylcellulose) (HPC).
Setting [18] is: dose: 400.0 mg/kg/injection, schedule: Q01DX009 (ip), vehicle: Klucel (hydroxypropylcellulose) (HPC).
[19] abbreviates: dose: 400.0 mg/kg/injection, schedule: Q04DX003 (ip), vehicle: Klucel (hydroxypropylcellulose) (HPC).
Where [20] appears, read: dose: 150.0 mg/kg/injection, schedule: Q01DX001 (ip), vehicle: saline.
Where [21] appears, read: dose: 50.0 mg/kg/injection, schedule: Q01DX001 (ip), vehicle: saline.
Where [22] appears, read: dose: 100.0 mg/kg/injection, schedule: Q01DX001 (ip), vehicle: saline.

The structures appear in SMILES notation. Values joined by “and” are separate entries in the source; they are usually repeats but may differ in a detail not shown here. Equal entries are not always repeated. Toxic doses and inconclusive results are not listed.

On to `COc1ccc(NC(=O)Nc2cc(Cl)ccc2OC)c(Cl)c1`, for which the T/C is 100 % of control (dose: 100.0 mg/kg/injection, schedule: Q01DX009 (ip), vehicle: saline); 104 % of control under setting [1]; 93 % of control (dose: 200.0 mg/kg/injection, schedule: Q01DX009 (ip), vehicle: saline); 98 % of control under setting [2]; 88 % of control (dose: 400.0 mg/kg/injection, schedule: Q01DX009 (ip), vehicle: saline); 101 % of control under setting [3].

With `C/C=C/CCCCCCCC(=O)OCCCC`, the T/C runs as follows: under setting [4], 101 % of control; under setting [5], 103 % of control; under setting [6], 107 % of control; under setting [7], 97 % of control; (dose: 400.0 mg/kg/injection, schedule: Q01DX009 (ip), vehicle: saline with Tween-80) 95 % of control; under setting [8], 98 % of control.

On to `CCOC(=O)C1(C(=O)OCC)CCC(C(=O)OCC)(C(=O)OCC)CC1`, for which the T/C is 101 % of control under setting [9], 101 % of control under setting [10] and 101 % of control under setting [11].

For `COc1cc(Oc2ccc(OC)c(OC)c2)c(C=O)cc1Br`, the T/C runs as follows: under setting [12], 96 % of control; under setting [13], 97 % of control; (dose: 400.0 mg/kg/injection, schedule: Q04DX003 (ip), vehicle: acetone) 97 % of control.

Regarding `CCCCC(C#N)(CCCC)C(=O)OCC`, the T/C runs as follows: under setting [5], 93 % of control; under setting [7], 98 % of control.

For the molecule `[Cl][Hg][S]C1CCCC1`, the T/C is 106 % of control (dose: 5.0 mg/kg/injection, schedule: Q01DX001 (ip), vehicle: saline); 101 % of control (dose: 10.0 mg/kg/injection, schedule: Q01DX001 (ip), vehicle: saline); 101 % of control (dose: 20.0 mg/kg/injection, schedule: Q01DX001 (ip), vehicle: saline).

As to `O=[N+]([O-])c1ccc2cn[nH]c2c1`, the T/C reads like this: under setting [14], 112 % of control; under setting [15], 95 % of control; under setting [16], 106 % of control; under setting [17], 92 % of control; under setting [18], 107 % of control; under setting [19], 96 % of control.

As for `c1ccc(CCCC2CCCC2)cc1`, the T/C was 94 % of control (dose: 75.0 mg/kg/injection, schedule: Q01DX001 (ip), vehicle: saline); 106 % of control (dose: 75.0 mg/kg/injection, schedule: Q01DX009 (ip), vehicle: saline); 96 % of control under setting [20]; 108 % of control (dose: 150.0 mg/kg/injection, schedule: Q01DX009 (ip), vehicle: saline); 97 % of control (dose: 300.0 mg/kg/injection, schedule: Q01DX001 (ip), vehicle: saline); 106 % of control (dose: 300.0 mg/kg/injection, schedule: Q01DX009 (ip), vehicle: saline).

As to `O=NN(CCCl)C(=O)NC1CCCC1`, the T/C is, setting by setting: (dose: 3.0 mg/kg/injection, schedule: Q01DX001 (ip), vehicle: saline) 108 % of control; (dose: 6.0 mg/kg/injection, schedule: Q01DX001 (ip), vehicle: saline) 108 % of control; (dose: 12.0 mg/kg/injection, schedule: Q01DX001 (ip), vehicle: saline) 112 % of control; (dose: 18.0 mg/kg/injection, schedule: Q01DX001 (ip), vehicle: saline) 118 % of control; (dose: 25.0 mg/kg/injection, schedule: Q01DX001 (ip), vehicle: saline) 162 % of control; (dose: 30.0 mg/kg/injection, schedule: Q01DX001 (ip), vehicle: saline) 222 % of control. Moreover, the T/C is 302 % of control (dose: 44.0 mg/kg/injection, schedule: Q01DX001 (ip), vehicle: saline); 328 % of control under setting [21]; 278 % of control (dose: 67.0 mg/kg/injection, schedule: Q01DX001 (ip), vehicle: saline); 243 % of control (dose: 93.0 mg/kg/injection, schedule: Q01DX001 (ip), vehicle: saline); 224 % of control and 333 % of control under setting [22]; 295 % of control under setting [20]. For the same molecule, the T/C (dose: 187.0 mg/kg/injection, schedule: Q01DX001 (ip), vehicle: saline) was 197 % of control; the T/C (dose: 375.0 mg/kg/injection, schedule: Q01DX001 (ip), vehicle: saline) was 283 % of control; the T/C (dose: 500.0 mg/kg/injection, schedule: Q01DX001 (ip), vehicle: saline) was 327 % of control.

In the case of `C#CCC#CCCCCCC`, the T/C runs as follows: (dose: 50.0 mg/kg/injection, schedule: Q01DX009 (ip), vehicle: saline with Tween-80) 95 % of control; under setting [4], 95 % of control; under setting [6], 95 % of control.

Consider `O=C(O)CC(c1ccccc1)c1ccccc1`, for which the T/C is, setting by setting: under setting [14], 98 % of control; under setting [15], 94 % of control; under setting [16], 97 % of control; under setting [17], 107 % of control; under setting [18], 109 % of control; under setting [19], 107 % of control.

With `Cc1nc(N)nc2c1CCC(O)S2` (stereo not drawn), the T/C runs as follows: (dose: 50.0 mg/kg/injection, schedule: Q01DX001 (ip), vehicle: Klucel (hydroxypropylcellulose) (HPC)) 89 % of control; (dose: 200.0 mg/kg/injection, schedule: Q01DX001 (ip), vehicle: Klucel (hydroxypropylcellulose) (HPC)) 86 % of control.

As to `CCOC(=O)C(C)(C)CCC(C)(C)C(=O)OCC`, the T/C reads like this: under setting [9], 97 % of control; under setting [10], 103 % of control; under setting [11], 90 % of control.

Consider `c1ccc2c(c1)ccc1c[s+]ccc12`, for which the T/C was 103 % of control under setting [12] and 103 % of control under setting [13].

With `CSc1cccc(N2C(=O)C=CC2=O)c1`, the T/C runs as follows: (dose: 2.5 mg/kg/injection, schedule: Q04DX002 (ip), vehicle: Klucel (hydroxypropylcellulose) (HPC)) 92 % of control; (dose: 5.0 mg/kg/injection, schedule: Q04DX002 (ip), vehicle: Klucel (hydroxypropylcellulose) (HPC)) 88 % of control; (dose: 10.0 mg/kg/injection, schedule: Q04DX002 (ip), vehicle: Klucel (hydroxypropylcellulose) (HPC)) 95 % of control and 97 % of control.

As for `OCc1cc(-c2ccc(Cl)cc2)nc2c(C(F)(F)F)cccc12`, the T/C is, setting by setting: under setting [14], 108 % of control; under setting [15], 102 % of control; under setting [16], 111 % of control; under setting [17], 104 % of control; under setting [18], 109 % of control; under setting [19], 102 % of control.

On to `CC(C)(N)CO`, for which the T/C was 104 % of control under setting [21]; 101 % of control under setting [22]; 100 % of control (dose: 100.0 mg/kg/injection, schedule: Q04DX002 (ip), vehicle: saline); 106 % of control under setting [1]; 104 % of control (dose: 200.0 mg/kg/injection, schedule: Q01DX001 (ip), vehicle: saline); 110 % of control (dose: 200.0 mg/kg/injection, schedule: Q04DX002 (ip), vehicle: saline). The T/C runs as follows: under setting [2], 106 % of control; (dose: 400.0 mg/kg/injection, schedule: Q01DX001 (ip), vehicle: saline) 101 % of control; (dose: 400.0 mg/kg/injection, schedule: Q04DX002 (ip), vehicle: saline) 100 % of control; under setting [3], 105 % of control.

As to `Cc1cc2ccc(OC(=O)c3ccc(N=C(N)N)cc3)cc2oc1=O`, the T/C by setting is: under setting [5], 97 % of control; under setting [7], 95 % of control; under setting [8], 98 % of control.
